Assay results from patent publication US10058582B2, “Therapeutic molecules and deviates for CRC” (ANTARTINA LLC, priority 2015, dated 2018).

How the values were obtained:
CT26 cells [1] = experiment: Cell viability assay (MTS, 490 nm); type: cell-based, mouse
Method: Mouse CT26 tumor cell line, an undifferentiated murine colorectal carcinoma (CRC) cell line established from a N-nitroso-N-methylurethan-induced transplantable tumor in BALB/c (H-2d) mice and BNL hepatoma cell line was kindly provided by Prof. Jesús Prieto, University of Navarra, Spain. CT26 and BNL were cultured in complete DMEM (2 mM glutamine, 100 U/ml penicillin, […] streptomycin) and 10% heat-inactivated fetal bovine serum (FBS) and incubated at 37° C. in a 5% CO2 humidified atmosphere.
Antartina was dissolved in 0.1% DMSO and sterile water an injected intraperitoneally (i.p.) at the doses indicated or used for in vitro assays at different concentrations (0.1; 1 and 10 µg/ml). Fluorouracil Rontag® (5-Fu) 500 mg was diluted in saline solution at indicated concentrations (0.1; 1 and 10 µg/ml).
CT26 cells were plated onto 96-well plates at a density of 5×10^3 cells/well and cultured with DMEM or Antartina at different doses (0.1-1-10 […]at different doses (0.1-1-10 DMEM or y of 5×10t indicated concentrations (0.1; 1 and 10 nd 10 ions (0.1; 1 and 10 mental for 4 hour after which the absorbance of each well was read at 490 nm. All assays were performed in quadruplicate, and each assay was repeated twice.

CT26 cells [2] = experiment: Cell cycle analysis (propidium iodide, flow cytometry); type: cell-based, mouse; conditions: 48 h and 72 h, Antartina 10 µg/ml
Method: 1×10^6 CT26 cells cultured with DMEM or Antartina were collected washed in PBS and fixed in a mixture of ice-cold 70% (v/v) ethanol, FBS and distill water. Fixed cells were centrifuged and stained with propidium iodide (PI) solution (50 μg/ml PI, 180 U/ml RNAse). DNA content was determined using a FACS Accuri 6 laser flow cytometer (Becton Dickinson).

CT26 CRC tumors = experiment: Subcutaneous CRC model; type: in vivo, BALB/c mice; conditions: for microscopic examination of tumor sections (H & E): 10 and 15 days after treatment
Method: Subcutaneous CRC model: CT26 cells were injected at a dose of 5×10^5 cells subcutaneously (s.c.) into the right flank of BALB/c mice (day 0). Tumors were allowed to reach approximately 90 mm^3 in size before treatment was started. Animals were distributed in different groups and then treated with Antartina or 0.1% DMSO in sterile water intraperitoneal (i.p.) (control group, n=6); Antartina (5 or 50 mg/kg i.p., day 8, n=9). Tumor growth was assessed by caliper measurement.
tumor samples from experimental groups were obtained 10 and 15 days after treatment and fixed in 10% phosphate-buffered formalin. Five-micrometer sections from paraffin-embedded tissues were stained with hematoxylin and eosin (H & E) for histologic examination.

[3] = test system: CT26 cells injected into the liver; experiment: Liver metastatic CRC model; type: in vivo, BALB/c mice
Method: BALB/c mice received an intra-hepatic inoculation of 5×10^5 CT26 cells (day 0). The mice were distributed in experimental groups and treated with saline (control group, n=6); Antartina (5 mg/kg i.p., n=8 day 8). At day 18, animals were sacrificed and the volume of metastatic nodules was measured with caliper.

Toxicity studies = type: in vivo, BALB/c mice
Method: BALB/c mice untreated or treated with Antartina (5 mg/kg and 50 mg/kg) were used to assess its toxicology profile. […] Aspartate aminotransferase (AST) and alanine aminotransferase (ALT) levels were measured by standard colorimetric methods. Also, healthy mice or mice receiving Antartina were sacrificed to collect liver, spleen, and kidney samples. Paraffin embedded tissues were stained with H & E for pathological analysis.

[4] = test system: tumor-infiltrating CD4+ and CD8+ T cells; experiment: Flow cytometry of tumor-infiltrating T lymphocytes; type: in vivo, BALB/c mice; conditions: day 18, p<0.05
Method: previously, single cell suspensions were obtained by mechanical disruption of tumor samples treated with 0.5 mg/ml Collagenase I at 37° C. for 45 min and washed with PBS 1% bovine serum albumin. Then, tumor cells were stained with PECy5-anti-CD4 (BD Biosciences) and AlexaFluor488-anti-CD8 (BD Biosciences) and their respective isotypes and subjected to flow cytometry (FACSAria, BD). Data were analyzed using Cyflogic v. 1.2.1 software.

CT26 cells [5] = experiment: CTL cytotoxicity assay (LDH release), CT26 targets; type: cell-based, mouse; conditions: splenocytes of treated cured mice, p<0.001
Method: (§1) viable splenocytes from control or treated mice (10×10^6) were stimulated in vitro with mitomycin C-treated CT26 cells (10×10^5 cells/well in 24-well-plates). On day 5, cells were harvested and washed, adjusted to 2×10^6/mL, and added to 96-well-plate (effector cells). To determine specific CTL cytotoxicity activity CT26 and BNL cells were used as target at 2×10^5/mL. After incubation for 4 h at 37° C., plates were centrifuged and cell-free supernatants were obtained. Levels of released LDH were evaluated with the LDH Cytotoxicity Detection Kit (Sigma-Aldrich) following the manufacturer's instructions and expressed as percentage of lysis.

BNL cells = experiment: CTL cytotoxicity assay (LDH release), BNL targets; type: cell-based, mouse; conditions: splenocytes of treated mice, in vitro
Method: as §1

CT26 CRC cells = experiment: Long-term protection study (re-challenge); type: in vivo, BALB/c mice; conditions: 3 weeks after complete tumor regression, 5×10^5 cells left flank
Text: to evaluate protective immunity, animals that were free of disease at 3 wk after complete regression of primary tumors (7 week after first tumor inoculation) were challenged with 5×10^5 CT26 cells on the left flank.

hepatocellular carcinoma = experiment: Hepatocellular carcinoma in mice with advanced fibrosis (preliminary, data not shown); type: in vivo

COc1cc(-c2cc(=O)c3c(O)cc(O[C@@H]4O[C@H](CO)[C@@H](O)[C@H](O)[C@H]4O)cc3o2)cc(OC)c1O [Antartina, Tricin 7-O-β-D-glucopyranoside]
CT26 cell survival (CT26 cells [1]; 48 h, highest concentration, p<0.05): inhibits CT26 cell survival | cell viability reduced to (CT26 cells [1]; 72 h, 10 µg/ml, p<0.001): ~50% | cell viability reduced (CT26 cells [1]; 72 h, 1 µg/ml, p<0.05): more than 20% | cell cycle pattern (CT26 cells [2]): arrested at G2/M phase | cell cycle pattern (CT26 cells [2]; listed as Antarina): halted CT26 cells at the transition from G2 to M-phase | tumor growth vs saline control (CT26 CRC tumors; 5 mg/kg i.p., from day 8 three times a week, over 30 days): significant inhibition of tumor growth | survival rate vs controls (CT26 CRC tumors; 5 mg/kg i.p., s.c. CT26 model): significantly increased | complete tumor regression, percent of mice (CT26 CRC tumors; 50 mg/kg i.p.): more than 30% | tumor volume (CT26 CRC tumors; 50 mg/kg i.p. from day 8): potent tumor volume reduction | complete tumor regression, mice of group (CT26 CRC tumors; 50 mg/kg i.p., n=9): 3/9 | animal survival vs saline control (CT26 CRC tumors; 50 mg/kg i.p., p<0.01): significantly increased | microscopic examination of tumor sections (H & E) (CT26 CRC tumors; 50 mg/kg i.p.): extensive areas of necrosis and marked mononuclear cells infiltration | microscopic examination of tumor sections (H & E) (CT26 CRC tumors; 50 mg/kg i.p., listed as Antarina): intense mononuclear infiltrate and extensive areas of necrosis | treated animals showing a reduction in metastases growth ([3]; 5 mg/kg i.p.): more than 60% | mean of tumor volume ([3]; 5 mg/kg i.p. from day 8, day 18 after inoculation, control 1508±204): 955±275 mm^3 | survival vs controls ([3]; 5 mg/kg i.p., liver metastatic model, p<0.01): superior | H & E stained tissues (liver, spleen, kidney) (Toxicity studies; 5 mg/kg and 50 mg/kg): no signs of toxicity | body weight gain in both groups (Toxicity studies; 5 and 50 mg/kg): similar | general health of animals (Toxicity studies; 5 and 50 mg/kg): remained healthy | tolerability, clinical and biochemical toxicity (AST, ALT) (Toxicity studies; 5 and 50 mg/kg, observed more than 30 days): well tolerated with no evident signs of clinical and biochemical toxicity | proportion of tumor-infiltrating CD4+ and CD8+ T cells vs control [4]: increased proportion | specific CTL activity against CT26 cells (CT26 cells [5]): potent activation of specific cytotoxic T lymphocytes | specific CTL activity against CT26 cells (CT26 cells [5]; listed as Antarina): potent CTL activity against CT26 cells | CTL activity against BNL cells (BNL cells): no CTL activity | re-challenge of cured animals with CT26 cells (CT26 CRC cells): rejected in all animals | antitumoral activity in vivo against hepatocellular carcinoma (hepatocellular carcinoma): antitumoral activity
